US4242329A, “Bradykinin-inhibiting tripeptide derivatives” (AB Kabi, priority 1978, dated 1980)
Non-standard residues stand in square brackets, D forms with d. Residues, ends and D or L forms follow the SMILES beside them.

Tested on: isolated rat uterus
Assay: Bradykinin-inhibiting activity on isolated rat uterus (contraction at ED70 of bradykinin)
Assay type: cell-based
Details: for Inhibition of bradykinin effect, %: against ED70 of bradykinin, isolated rat uterus; for Duration of inhibition: time until bradykinin again gives the original contraction
Method: The bradykinin-inhibiting activity of the new tripeptide derivatives is evident from the following disclosure of the biological evaluation on isolated organs. The bradykinin-inhibiting activity is studied on isolated rat uterus. The rats are pretreated subcutanous with 0.2 mg/kg of diethyl stilbestrol, 12-15 hours prior to the experiment. The muscle from uterus which is longitudinally sectioned into halves is arranged in a smooth muscle bath with de Jalon's buffer (de Jalon et al., Farmacother.Acta, Vol. 3, p. 313, 1945), oxygenated with carbogene gas (5% carbon dioxide, 95% oxygen). The temperature is maintained at 35° C. The muscle is stretched with a tension corresponding to 0.5 g. The isometric tension is measured with Grass (FT 03C) force transmitter connected to a Grass polygraph.
Muscle contractions for bradykinin in bath concentrations of 10^-11 -10^-6 M (mole/liter) are registrated, and thereafter the concentration of bradykinin which induces 70% of maximum muscle contraction (ED70) is evaluated. The bradykinin inhibiting activity is then tested with the tripeptide derivatives in bath concentrations of 10^-8, 10^-7, 10^-6 and 10^-5 M, against the ED70 for bradykinin of resp. muscle. For each concentration the tripeptide derivatives are incubated with the uterus tissue 5 and 10 minutes resp. before the addition of bradykinin. The bradykinin-inhibiting activity is expressed as the time in minutes required until bradykinin again gives the original contraction. Each addition of bradykinin is followed by washing with the buffer.

[1] = conc. in test bath 10^-5 mole/liter
[2] = conc. in test bath 10^-6 mole/liter
[3] = conc. in test bath 10^-7 mole/liter
[4] = conc. in test bath 10^-8 mole/liter

SMILES: N=C(N)NCCC[C@H](NC(=O)[C@H](Cc1ccccc1)NC(=O)[C@H]1CCCN1)C(N)=O [Example III, H-D-Pro-Phe-Arg-NH2] (H-[dP]-Phe-Arg-NH2)
- Inhibition of bradykinin effect, % [1]: 100%
- Duration of inhibition [1]: 50 min
- Inhibition of bradykinin effect, % [2]: 100%
- Duration of inhibition [2]: 30 min
- Inhibition of bradykinin effect, % [3]: 15%
- Duration of inhibition [3]: 15 min
- Inhibition of bradykinin effect, % [4]: 15%
- Duration of inhibition [4]: 15 min

SMILES: CCCCCCCNC(=O)[C@H](CCCNC(=N)N)NC(=O)[C@H](Cc1ccccc1)NC(=O)[C@H]1CCCN1 [Example II, H-D-Pro-Phe-Arg-NH-heptyl]
- Inhibition of bradykinin effect, % [1]: 100%
- Duration of inhibition [1]: 45 min
- Inhibition of bradykinin effect, % [2]: 100%
- Duration of inhibition [2]: 30 min
- Inhibition of bradykinin effect, % [3]: 15%
- Duration of inhibition [3]: 20 min
- Inhibition of bradykinin effect, % [4]: 15%
- Duration of inhibition [4]: 15 min

SMILES: CCCCCCCOC(=O)[C@H](CCCNC(=N)N)NC(=O)[C@H](Cc1ccccc1)NC(=O)[C@H]1CCCN1 [Example I, H-D-Pro-Phe-Arg-O-heptyl]
- Inhibition of bradykinin effect, % [1]: 100%
- Duration of inhibition [1]: 35 min
- Inhibition of bradykinin effect, % [2]: 100%
- Duration of inhibition [2]: 15 min
- Inhibition of bradykinin effect, % [3]: 10%
- Duration of inhibition [3]: 15 min
- Inhibition of bradykinin effect, % [4]: 10%
- Duration of inhibition [4]: 15 min
